According to patent US7279175B2, “Stent coated with a sustained-release drug delivery and method for use thereof” (Psivida Inc., priority 2001, dated 2007):

What was measured:
[1] = In vitro release from stents coated with 1:1 mixture of TA and 5FU without chemical linkage; format: physicochemical; conditions: mixture coating, 0.1M phosphate buffer pH 7.4, 37° C.
Protocol: Stents were coated with a mixture of TA and 5FU in a mole-ratio of 1 to 1 without chemical linkage. The release rate was determined in vitro by placing the coated stents in 0.1M phosphate buffer (pH 7.4) at 37° C. Samples of the buffer solution were periodically removed for analysis by HPLC, and the buffer was replaced to avoid any saturation effects.
Because of the hydrophilic nature of 5FU, this compound was released from the mixture coating much faster than from the codrug coating. Within 4 weeks, more than 95% of total 5FU was released. TA release from the drug mixture coating was much slower, with about 20% TA released over the first 6 weeks.

[2] = Release test from silicone-coated glass plates into phosphate buffer (HPLC); conditions: silicone coating, up to day 6; detected plus hydrolyzed
Text: Samples were taken daily, and the entire release media was replaced with fresh media at each sampling time. […] Again, the data represent both intact and constituents of the inventive compound.

[3] = Release test from PVA-coated glass plates into phosphate buffer (HPLC); format: physicochemical; conditions: 0.1 M phosphate buffer pH 7.4, 37° C., intact plus constituents

SMILES: O=c1[nH]cc(F)c(=O)[nH]1 [5FU, 5-fluorouracil]
- total 5FU released ([1]; within 4 weeks): more than 95%

SMILES: COc1ccc2cc(C(C)C(=O)OCn3cc(F)c(=O)[nH]c3=O)ccc2c1 (stereo not shown) [TC-112]
- total TC-112 released [2]: 122.4 mg
- release rate (slope of total cumulative release curve) [3]: 10 µg/day

SMILES: CC1(C)O[C@@H]2C[C@H]3[C@@H]4CCC5=CC(=O)C=C[C@]5(C)[C@@]4(F)[C@@H](O)C[C@]3(C)[C@]2(C(=O)CO)O1 [TA, triamcinolone acetonide]
- TA released ([1]; over the first 6 weeks): about 20%
